One may read the Kd as a measure of binding affinity in units of concentration.

Assay [1] deals with RARs. Briefly: Binding to RARs (stated over all three subtypes). The settings on record: range over RARα, RARβ and RARγ. The source says:
(§1) Prostate cancer is one of the most common cancers in European and American males and has a high mortality rate (Landis et al, 1998; Rosenthal, 1998). Early disease is managed conservatively in Europe although in selected patients surgery is curative. In advanced disease, androgen ablation can produce symptomatic improvement, but the tumour often re-emerges in an androgen- independent and incurable form. One proposed treatment for androgen-independent prostate carcinoma is differentiation ther- apy, in which agents such as all-trans-retinoic acid (ATRA), 9-cis- retinoic acid and 1, 25-dihydroxyvitamin D3 (D3 ) are used to induce growth arrest, differentiation and sometimes apoptosis of the tumour cells (Liang et al, 1999; de Vos et al, 1997; Skowronski et al, 1994; Hedlund et al, 1997). ATRA and synthetic analogues exert their biological effects by binding to two families of retinoid receptors, […]. These are ligand-dependent transcription factors of the steroid/thyroid hormone nuclear receptor superfamily (Chambon 1994; Boehm et al, 1995). Activated RARs bind to retinoic acid-responsive elements (RAREs) in the promoters of genes and thus regulate gene expression. They also antagonize the activity of the tran- scription factor AP1 and thereby down-regulate the expression of some AP1-activated genes (Nagpal et al, 1995). […]

Assay [2] has as its system LNCaP ITS+ cells. Briefly: Plate colony formation (clonal proliferation) assay, serum-free (ITS+)-grown LNCaP. Format: cell-based, human. The source says:
(§2) Prostate cancer is one of the most common cancers in European and American males and has a high mortality rate (Landis et al, 1998; Rosenthal, 1998). Early disease is managed conservatively in Europe although in selected patients surgery is curative. In advanced disease, androgen ablation can produce symptomatic improvement, but the tumour often re-emerges in an androgen- independent and incurable form. One proposed treatment for androgen-independent prostate carcinoma is differentiation ther- apy, in which agents such as all-trans-retinoic acid (ATRA), 9-cis- retinoic acid and 1, 25-dihydroxyvitamin D3 (D3 ) are used to induce growth arrest, differentiation and sometimes apoptosis of the tumour cells (Liang et al, 1999; de Vos et al, 1997; Skowronski et al, 1994; Hedlund et al, 1997). ATRA and synthetic analogues exert their biological effects by binding to two families of retinoid receptors, […]. These are ligand-dependent transcription factors of the steroid/thyroid hormone nuclear receptor superfamily (Chambon 1994; Boehm et al, 1995). Activated RARs bind to retinoic acid-responsive elements (RAREs) in the promoters of genes and thus regulate gene expression. They also antagonize the activity of the tran- scription factor AP1 and thereby down-regulate the expression of some AP1-activated genes (Nagpal et al, 1995). One approach to unravelling the contributions of RAR sub-types to these actions has been the development of synthetic retinoids with selective activities at individual RARs and RXRs. For example, the diaryl- acetylenic retinoids allow separation of transactivation and AP1 antagonism functions at RAR (Nagpal et al, 1995). Recently, compounds that are selective for particular RAR sub-types have been synthesized: these include both agonists and antagonists (Chandraratna, 1995; Teng et al, 1999; Johnson et al, 1999). The functional selectivity of these compounds may open the way to achieving differentiation or apoptosis of tumour cells with minimal systemic side effects (Chandraratna, 1995). Cell lines that are commonly used in the evaluation of investiga- tional agents for prostate cancer include LNCaP, DU-145 and PC- 3. […] These lines are relatively insensitive to growth inhibition and induction of apoptosis by ATRA and by synthetic agonists. […] Fenretinide (4HPR) induces apoptosis of LNCaP and of PC-3 cells at 1-5 M and 25 µM, respectively (Pienta et al, 1993; Heish and Wu, 1997). Pfahl and colleagues examined the growth inhibitory effects of a panel of receptor-selective retinoids against DU145 and PC-3 cells and achieved complete growth inhibition and induction of apoptosis between 1 M and 10 M (Lu et al, 1999). […] Antagonists of retinoic acid receptors (RARs) are potent growth inhibitors of prostate carcinoma cells LA Hammond1 , CH Van Krinks2 , J Durham2 , SE Tomkins2 , RD Burnett3 , EL Jones1 , RAS Chandraratna3 and G Brown2 Divisions of 1 Cancer Studies and of 2 Immunity and Infection, University of Birmingham Medical School, Edgbaston, Birmingham B15 2TT, UK and 3 Retinoid Research, Allergan Inc., Irvine, California, USA Summary Novel synthetic antagonists of retinoic acid receptors (RARs) have been developed. To avoid interference by serum retinoids when testing these compounds, we established serum-free grown sub-lines (>3 years) of the prostate carcinoma lines LNCaP, PC3 and DU145. […] A component(s) of serum and of LNCaP-conditioned medium diminishes the activity of antagonists: this factor is not the most likely candidates IGF-1 and EGF. In vitro studies of RAR antagonists together with data from RAR-null mice lead to the hypothesis that RAR-regulated gene transcription is necessary for the survival and maintenance of prostate epithelium. […]

The subject of assay [3] is LNCaP, PC3 and DU145 cells. Briefly: Plate colony formation assay, stated over the three serum-free grown lines. Format: cell-based, human.
From the text: as §2

Assay [4] deals with FBS-grown LNCaP, DU145 and PC3 cells. Briefly: Plate colony formation assay, stated over the three FBS-grown lines. Format: cell-based, human. The settings on record: 100 nM.
From the text: as §1

Assay [5] relates to DU145 ITS+ cells. The assay can be described thus: Plate colony formation assay, serum-free (ITS+)-grown DU145. The class given is cell-based, human. Particulars: 14 days. The source says:
Prostate cancer is one of the most common cancers in European and American males and has a high mortality rate (Landis et al, 1998; Rosenthal, 1998). Early disease is managed conservatively in Europe although in selected patients surgery is curative. In advanced disease, androgen ablation can produce symptomatic improvement, but the tumour often re-emerges in an androgen- independent and incurable form. One proposed treatment for androgen-independent prostate carcinoma is differentiation ther- apy, in which agents such as all-trans-retinoic acid (ATRA), 9-cis- retinoic acid and 1, 25-dihydroxyvitamin D3 (D3 ) are used to induce growth arrest, differentiation and sometimes apoptosis of the tumour cells (Liang et al, 1999; de Vos et al, 1997; Skowronski et al, 1994; Hedlund et al, 1997). ATRA and synthetic analogues exert their biological effects by binding to two families of retinoid receptors, the RARs (RAR, RAR and RAR) and the RXRs (RXR, RXR and RXR). These are ligand-dependent transcription factors of the steroid/thyroid hormone nuclear receptor superfamily (Chambon 1994; Boehm et al, 1995). Activated RARs bind to retinoic acid-responsive elements (RAREs) in the promoters of genes and thus regulate gene expression. They also antagonize the activity of the tran- scription factor AP1 and thereby down-regulate the expression of some AP1-activated genes (Nagpal et al, 1995). One approach to unravelling the contributions of RAR sub-types to these actions has been the development of synthetic retinoids with selective activities at individual RARs and RXRs. For example, the diaryl- acetylenic retinoids allow separation of transactivation and AP1 antagonism functions at RAR (Nagpal et al, 1995). Recently, compounds that are selective for particular RAR sub-types have been synthesized: these include both agonists and antagonists (Chandraratna, 1995; Teng et al, 1999; Johnson et al, 1999). The functional selectivity of these compounds may open the way to achieving differentiation or apoptosis of tumour cells with minimal systemic side effects (Chandraratna, 1995). […]

Assay [6] deals with T1, RARγ (Homo sapiens, UniProt P13631).
T1 sequence (P13631 1-454): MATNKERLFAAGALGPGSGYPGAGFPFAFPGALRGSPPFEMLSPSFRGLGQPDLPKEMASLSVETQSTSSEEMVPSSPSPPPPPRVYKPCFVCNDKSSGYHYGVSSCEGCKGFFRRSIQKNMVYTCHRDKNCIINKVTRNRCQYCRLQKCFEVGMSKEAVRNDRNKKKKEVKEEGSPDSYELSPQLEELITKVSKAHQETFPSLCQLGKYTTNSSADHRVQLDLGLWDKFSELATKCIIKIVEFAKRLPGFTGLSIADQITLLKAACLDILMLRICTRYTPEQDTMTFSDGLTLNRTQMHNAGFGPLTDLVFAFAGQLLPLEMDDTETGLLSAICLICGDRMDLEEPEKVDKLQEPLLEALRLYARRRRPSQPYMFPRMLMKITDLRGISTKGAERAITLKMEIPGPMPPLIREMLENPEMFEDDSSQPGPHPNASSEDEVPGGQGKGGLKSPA
Briefly: Binding to baculovirus-expressed RARγ. Particulars: baculovirus-expressed receptor. Also noted: made in house.
From the text: as §2

Assay [7] concerns the target T2, RARβ (Homo sapiens, UniProt P10826).
T2 sequence (P10826 1-455): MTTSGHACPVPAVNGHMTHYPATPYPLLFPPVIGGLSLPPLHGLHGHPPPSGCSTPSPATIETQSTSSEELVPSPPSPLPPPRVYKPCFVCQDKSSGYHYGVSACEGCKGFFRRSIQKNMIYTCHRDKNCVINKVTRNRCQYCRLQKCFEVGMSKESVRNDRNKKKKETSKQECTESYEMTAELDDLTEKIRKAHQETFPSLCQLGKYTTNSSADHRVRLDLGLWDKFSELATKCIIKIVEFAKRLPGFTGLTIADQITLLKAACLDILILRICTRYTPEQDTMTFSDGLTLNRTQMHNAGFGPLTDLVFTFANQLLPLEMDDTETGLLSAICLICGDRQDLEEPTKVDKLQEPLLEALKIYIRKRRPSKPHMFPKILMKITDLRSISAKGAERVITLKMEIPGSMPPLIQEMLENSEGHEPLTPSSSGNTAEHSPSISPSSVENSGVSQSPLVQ
Briefly: Binding to baculovirus-expressed RARβ. Also noted: made in house. Particulars: baculovirus-expressed receptor.
From the text: as §2

The test system of assay [8] is primary prostate carcinoma cells. The assay can be described thus: Growth of primary prostate carcinoma cells (flask cultures, passage 2). The class given is cell-based, human. Particulars: 10 and 100 nM, two patients, days 3 and 6.
From the text: as §1

A value given as a limit tells only on which side of the number the result lay.

As for `CCc1ccc(C2=CC(C)(C)Sc3ccc(C#Cc4ccc(C(=O)O)cc4)cc32)cc1` [AGN194310], the dissociation constant Kd in assay [1] was 2 to 5 nM; in assay [6], 5 nM; in assay [7] it was 2 nM. Further, the “growth inhibitory effect in combination with TTNPB” value in assay [2] (50 nM AGN194310 together with 100 nM TTNPB) is recorded as “almost complete reversal”. For the same molecule, the entries for the “colony formation (% of control values)” value in assay [2] (50 nM alone (Figure 3)), in assay [2] (100 nM AGN194310 together with 100 nM TTNPB) and in assay [2] (100 nM alone (Figure 3)) were 41%, 40% and 14%, respectively. Further, the “colony formation (% of control)” value in assay [2] (100 nM, ITS+ cells plated in ITS+ medium (Figure 5A)) is reported as below 1%; in assay [3] (100 nM, ITS+-grown cells, all three cell lines), 3-7%. The “growth inhibitory activity in LNCaP-conditioned medium” value in assay [2] (100 nM, LNCaP ITS+ cells plated in LNCaP-conditioned medium) is given as “abrogated”. The “inhibition of colony formation” value in assay [2] (100 nM, with EGF at 1, 10 and 20 ng/ml) is reported as above 95%; in assay [4] it was 11-23%. Besides, the IC50 is 16 nM in assay [2] (LNCaP, serum-free (ITS+), 14 days); 16 to 34 nM in assay [3] (stated over all three serum-free grown lines, read-out: concentration inhibiting colony formation by 50% (IC50)); 34 nM in assay [5]. Also, the “concentration required to attain maximum growth inhibition” value in assay [2] (colony assay) is listed as 100 nM. The “fold more potent than ATRA” value in assay [3] (against cell lines, serum-free) is 12–22 fold. In addition, the “cell growth of primary lines” value in assay [8] was “substan- tial growth inhibition”.

These data come from article PMC2364081, “Antagonists of retinoic acid receptors (RARs) are potent growth inhibitors of prostate carcinoma cells” (British Journal of Cancer, 2001).
